# Read-outs that look alike come from different tables or passages of the source.
# How the values were obtained:
# Format in all cases: cell-based
# Yarrowia lipolytica = test: MIC100 microdilution assay against Yarrowia lipolytica
# Experimental: In previous research we found a good correlation between MIC values against Yarrowia lipolytica and pathogenic Candida species.
# Determination of MICs against Yarrowia lipolytica (DSMZ, Braunschweig, Germany) was carried out according to lit. Yarrowia lipolytica was cultivated in AC‐agar (Sigma Aldrich). Concentration of yeast cells was determined by photometer and adjusted to a turbidity of 0.5 according to McFarland standard at 600 nm. All substances were dissolved in DMSO or methanol.
# Determination of MICs (minimal inhibitory concentration) against Yarrowia lipolytica was carried out according to Lit.^[13] Concentration of yeast cells was determined by photometer and adjusted to a turbitity of 0.5 according to McFarland Standard.
# C. albicans = test: MIC90 microdilution (EUCAST), C. albicans; conditions: Candida albicans, 24 h
# Experimental: (§1) Determination of MICs (minimal inhibitory concentration) against Candida species was carried out according to the European Committee of Antifungal Susceptibility Testing. Concentration of yeast cells was determined by photometer and adjusted to a turbidity of 0.5 according to McFarland standard. MIC90 was determined by microdilution plate reader (Sunrise Tecan) at 450 nm, after 24 h incubation at 37°C. MIC90 was defined as the minimal concentration of chemical causing 90% growth inhibition, respectively. Growth inhibition of molds was determined by eye and microscopically, following EUCAST guidelines. All substances were dissolved in DMSO and diluted in RPMI 1640 medium, containing 2% glucose. All assays were carried out twice.
# C. glabrata = test: MIC90 microdilution (EUCAST), C. glabrata; conditions: Nakaseomyces glabratus, 24 h
# Experimental: as §1
# C. krusei = test: MIC90 microdilution (EUCAST), C. krusei; conditions: Pichia kudriavzevii, 24 h
# Experimental: as §1
# A. fumigatus (A65) = test: MIC90 growth inhibition of molds (EUCAST), A. fumigatus (A65); conditions: Aspergillus fumigatus, RPMI 1640, 2% glucose, read by eye and microscopically
# Experimental: Determination of MICs (minimal inhibitory concentration) against Candida species was carried out according to the European Committee of Antifungal Susceptibility Testing. Concentration of yeast cells was determined by photometer and adjusted to a turbidity of 0.5 according to McFarland standard. […] Growth inhibition of molds was determined by eye and microscopically, following EUCAST guidelines. […] All assays were carried out twice.
# A. fumigatus (R16) = test: MIC90 growth inhibition of molds (EUCAST), A. fumigatus (R16); conditions: Aspergillus fumigatus
# Experimental: as §1
# A. fumigatus (R7) = test: MIC90 growth inhibition of molds (EUCAST), A. fumigatus (R7); conditions: Aspergillus fumigatus
# Experimental: as §1
# R. microsporus = test: MIC90 growth inhibition of molds (EUCAST), R. microsporus; conditions: Rhizopus microsporus
# Experimental: as §1
# R. arrhizus (oryzae) = test: MIC90 growth inhibition of molds (EUCAST), R. arrhizus (oryzae); conditions: Rhizopus arrhizus
# Experimental: as §1
# [1] = MTT cytotoxicity assay against HL 60 cells; conditions: human
# Experimental: The cytotoxicity of the active compounds was checked in an MTT assay against human HL 60 cells. […] Although, this corresponds to the MIC range that would be needed in treatment, the values are within the range observed for commonly used antimycotics such as amorolfine and posaconazole. All active compounds were evaluated for their biopharmaceutical behavior and drug‐likeness using the online program SwissADME [26] and should show oral bioavailability according to the Lipinski rules of five.
# HL‐60 cells (human leukemia cells, DSM No. ACC3) were obtained from DSMZ (German Collection of Microorganisms and Cell Cultures, Braunschweig, Germany) and cultivated in RPMI 1640 medium with 10% fetal bovine serum (FBS), both from PAA Laboratories, Cölbe, Germany) without the addition of antibiotics at 37°C in a humidified atmosphere containing 5% CO2. The assay was performed according to lit.
# molds = test: Growth inhibition of molds; conditions: against the molds
# Experimental: as §1
# [2] = C. albicans, RPMI 1640, 2% glucose, 37°C, duplicate, read-out: MIC90
# [3] = C. glabrata, RPMI 1640, 2% glucose, 37°C, duplicate, read-out: MIC90
# [4] = C. krusei, RPMI 1640, 2% glucose, 37°C, duplicate, read-out: MIC90
# [5] = A. fumigatus (R16), RPMI 1640, 2% glucose, read by eye and microscopically, read-out: MIC90
# [6] = A. fumigatus (R7), RPMI 1640, 2% glucose, read by eye and microscopically, read-out: MIC90
# [7] = R. microsporus, RPMI 1640, 2% glucose, read by eye and microscopically, read-out: MIC90
# [8] = R. arrhizus (oryzae), RPMI 1640, 2% glucose, read by eye and microscopically, read-out: MIC90
# [9] = 48 h, read-out: Biological Activity MIC Yarrowia lipolytica
# [10] = HL-60 cells (human leukemia cells), HL 60 cell line, MTT assay, read-out: IC50 cytotoxicity
# [11] = read-out: MIC100 (molar value in brackets)
Structure (SMILES),MIC90 (A. fumigatus (A65)) [µg/mL],MIC (Yarrowia lipolytica; [9]) [µg/mL],"MIC (Yarrowia lipolytica; 48 h, read-out: MIC100) [µg/mL]",MIC90 (C. albicans) [µg/mL],MIC90 (C. glabrata) [µg/mL],MIC90 (C. krusei) [µg/mL],MIC90 (A. fumigatus (R16)) [µg/mL],MIC90 (A. fumigatus (R7)) [µg/mL],MIC90 (R. microsporus) [µg/mL],"IC50 [1, 10] [µg/mL]",MIC (Yarrowia lipolytica; [11]) [µM],MIC90 (R. arrhizus (oryzae)) [µg/mL],also measured
"CCCCN1CCC(N2CCC3CCCCC3C2)CC1 (racemic) [6g, (±)‐2‐(1‐Butylpiperidin‐4‐yl)‐decahydroisoquinoline]",> 32,,,,,,,,,,,,"MIC (Yarrowia lipolytica; microdilution, 48 h, 25°C, 600 nm, read-out: MIC100): > 100 µg/mL; MIC (Yarrowia lipolytica; supplement table, MIC100, 48 h, 25°C, 600 nm, read-out: Biological Activity MIC Yarrowia lipolytica): > 100 µg/mL; MIC90 (C. albicans; [2]): > 32 µg/mL; MIC90 (C. glabrata; [3]): > 32 µg/mL; MIC90 (C. krusei; [4]): > 32 µg/mL; MIC90 (A. fumigatus (R16); [5]): > 32 µg/mL; MIC90 (A. fumigatus (R7); [6]): > 32 µg/mL; MIC90 (R. microsporus; [7]): > 32 µg/mL; MIC90 (R. arrhizus (oryzae); [8]): > 32 µg/mL; IC50 [1]: > 100 µg/mL"
"CCCCCCCCN1CCC(N2CCC3CCCCC3C2)CC1 (racemic) [6h, (±)‐2‐(1‐Octylpiperidin‐4‐yl)decahydroisoquinoline]",> 32,3.1,3.1,> 32,> 32,8,> 32,> 32,> 32,75,,,MIC (R. arrhizus (oryzae); read-out: MIC90): 32 µg/mL
"COc1cc2c(cc1OC)CN(C1CCN(CCC(C)CCC=C(C)C)CC1)CC2 (racemic) [6j, (±)‐2‐[1‐(3,7‐Dimethyloct‐6‐en‐1‐yl)piperidin‐4‐yl]‐6,7‐dimethoxy‐1,2,3,4‐tetrahydroisoquinoline]",> 32,3.1,3.1,> 32,> 32,32,> 32,> 32,> 32,75,7.5,> 32,
"CC(C)=CCCC(C)CCN1CCC(N2CCC3CCCCC3C2)CC1 (racemic) [6k, (±)‐2‐[1‐(3,7‐Dimethyloct‐6‐en‐1‐yl)‐piperidin‐4‐yl]‐decahydroisoquinoline]",> 32,6.3,6.3,16,> 32,8,> 32,> 32,> 32,17,17.5,16,growth inhibition at concentrations (molds) (molds): 16 to 32 µg/mL
"CCCCN1CCC(N2CCc3cc(OC)c(OC)cc3C2)CC1 [6d, 2‐(1‐Butylpiperidin‐4‐yl)‐6,7‐dimethoxy‐1,2,3,4‐tetrahydroisoquinoline]",> 32,> 100,> 100,> 32,> 32,> 32,> 32,> 32,> 32,> 100,,> 32,
"CCCCCCCCN1CCC(N2CCc3cc(OC)c(OC)cc3C2)CC1 [6e, 6,7‐Dimethoxy‐2‐(1‐octylpiperidin‐4‐yl)‐1,2,3,4‐tetrahydroisoquinoline]",> 32,1.6,1.6,32,> 32,8,> 32,> 32,> 32,> 100,4.1,> 32,
"CC(C)=CCC/C(C)=C/CN1CCC(N2CCC3CCCCC3C2)CC1 (centres unmarked) [6l, 2‐{1‐[(2E)‐3,7‐Dimethylocta‐2,6‐dien‐1‐yl]piperidin‐4‐yl}‐decahydroisoquinoline]",> 32,12.5,12.5,32,> 32,4,> 32,> 32,> 32,26,34.9,16,growth inhibition at concentrations (molds) (molds): 16 to 32 µg/mL
"c1ccc(CN2CCC(N3CCc4ccccc4C3)CC2)cc1 [7a, 2‐(1‐Benzylpiperidin‐4‐yl)‐1,2,3,4‐tetrahydroisoquinoline]",> 32,> 100,> 100,> 32,> 32,> 32,> 32,> 32,> 32,,,> 32,
"COc1cc2c(cc1OC)CN(C1CCN(Cc3ccccc3)CC1)CC2 [7b, 2‐(1‐Benzylpiperidin‐4‐yl)‐6,7‐dimethoxy‐1,2,3,4‐tetrahydroisoquinoline]",> 32,> 100,> 100,> 32,> 32,> 32,> 32,> 32,> 32,,,> 32,
"CCC(C)(C)c1ccc(CC(C)CN2C[C@@H](C)O[C@@H](C)C2)cc1 (some centres unmarked) [Amorolfine, reference compound]",,,,,,,,,,17,,,
"OC(Cn1cncn1)(Cn1cncn1)c1ccc(F)cc1F [FLZ, fluconazole, reference compound]",32,,,,,,,,,,,,MIC90 (C. albicans; [2]): 0.25 µg/mL; MIC90 (C. glabrata; [3]): 16 µg/mL; MIC90 (C. krusei; [4]): 8 µg/mL; MIC90 (A. fumigatus (R16); [5]): > 32 µg/mL; MIC90 (A. fumigatus (R7); [6]): 16 µg/mL; MIC90 (R. microsporus; [7]): > 32 µg/mL; MIC90 (R. arrhizus (oryzae); [8]): > 32 µg/mL
"CC[C@@H]([C@H](C)O)n1ncn(-c2ccc(N3CCN(c4ccc(OC[C@@H]5CO[C@@](Cn6cncn6)(c6ccc(F)cc6F)C5)cc4)CC3)cc2)c1=O [Posaconazole, reference compound]",,,,,,,,,,5,,,

# Source: paper PMC12531613, “Synthesis and Biological Evaluation of Novel 2‐(Piperidin‐4‐yl)‐1,2,3,4‐tetrahydroisoquinoline and 2‐(Piperidin‐4‐yl)decahydroisoquinoline Antimycotics” (Archiv Der Pharmazie, 2025)
